Columns and labels:
pem1Δpem2Δ-pYES2.1-PvPMT = test: yeast growth inhibition, pem1Δpem2Δ strain expressing PvPMT; format: cell-based; settings: 100 μM AQ
Experimental: Figure 5 PMT-dependent inhibition of growth and PC biosynthesis by amodiaquine and NSC158011. (A–C): Growth curves of pem1Δpem2Δ-pYES2.1-PkPMT (A), pem1Δpem2Δ-pYES2.1-PvPMT (B), or Wild Type-pYES2.1- (C) strains grown in minimal medium containing 4% galactose and 1 mM ethanolamine in the presence or absence of 100 μM choline and 100 μM amodiaquine (AQ) as indicated. Growth curves of pem1Δpem2Δ-pYES2.1-PkPMT (D), pem1Δpem2Δ-pYES2.1-PvPMT (E), or Wild Type-pYES2.1- (F) strains maintained in minimal medium containing 4% galactose and 1 mM ethanolamine in the presence or absence of 100 μM choline and 10 μM NSC158011.
pem1Δpem2Δ-pYES2.1, pem1Δpem2Δ-pYES2.1-PkPMT, pem1Δpem2Δ-pYES2.1-PvPMT, and pem1Δpem2Δ-pYES2.1-PfPMT yeast strains were pre-grown overnight in uracil dropout synthetic galactose (4%) (SG-URA) medium supplemented with 2 mM ethanolamine (Etn). Cells were diluted to an A600 = 0.001 in fresh SG-URA medium supplemented with 2 mM Etn in the presence or absence of 100 μM Choline (Cho). Cells were grown at 30°C and the growth was monitored by measuring the A600. […]

[1] = tested on: PC biosynthesis in pem1Δpem2Δ-pYES2.1-PvPMT; test: phospholipid analysis of yeast pem1Δpem2Δ strain expressing PvPMT; format: cell-based; settings: 200 μM AQ
Experimental: (§1) Figure 6 PMT-dependent inhibition of PC biosynthesis by AQ and NSC158011. To assess the effect of AQ on phospholipid metabolism, […] and wild-type strains were grown in minimal medium containing 4% galactose and 2 mM ethanolamine in the absence or presence of 200 μM AQ, lipids were extracted and separated by TLC (A). Each lipid class was scrapped off the TLC plate and quantified by measuring phosphorus (B). The effect of NSC158011 on phospholipid biosynthesis was determined by [33P] orthophosphoric acid labeling as described in Material and Methods. Lipids were separated by TLC (C) and quantified by liquid scintillation spectrometry (D). For all assays, data were used to calculate the PC/PI + PA ratio. The data are represented as the mean ± S.D. of at least two independent experiments.
(§2) BY4741-pYes2.1 (wild-type) strains and the pem1Δpem2Δ strains harboring pYES2.1 vector, pYES2.1-PkPMT, pYES2.1-PvPMT or pYES2.1-PfPMT were pre-grown to mid-log phase at 30°C in SG-URA medium supplemented with Etn (2 mM) and Cho (2 mM). […] Each lipid class was excised from the plate and quantified by measuring phosphorus. […] After the growth, lipids were extracted and analyzed as described above. […] The resolved radioactive lipids were visualized by Phosphorimager (GE Typhoon) and quantified by liquid scintillation spectrometry as described.

[2] = tested on: PC biosynthesis in pem1Δpem2Δ-pYES2.1-PkPMT; test: phospholipid analysis of yeast pem1Δpem2Δ strain expressing PkPMT; format: cell-based; settings: 200 μM AQ
Experimental: as §1, §2

PfPMT = tested on: PfPMT; set-up: method as in PMID 20085640, PMID 24145416; settings: cited from earlier work

## CCN(CC)Cc1cc(Nc2ccnc3cc(Cl)ccc23)ccc1O [AQ, amodiaquine]
pem1Δpem2Δ-pYES2.1-PvPMT; 100 μM choline
  growth of pem1Δpem2Δ+PvPMT strain in media supplemented with choline: no effect
pem1Δpem2Δ-pYES2.1-PvPMT; ethanolamine medium without choline
  growth of pem1Δpem2Δ+PvPMT strain: significantly inhibited
[1]
  effect on the synthesis of PE: little to no effect
[2]
  effect on the synthesis of PE: little to no effect
PfPMT
  mode of inhibition of PfPMT: non-competitive inhibitors
